In US8664406B2, “Fluorescent probe compounds, preparation method and use thereof” (Dalian University of Technology, priority 2009, dated 2014):

Experiments:
[1] = pH range 4.9 to 7.7, aqueous solution, ionic strength 0.1
Description: The pHs of RHg1 aqueous solution and RHg1/Hg^2+ aqueous solution (ionic strength of 0.1, respectively) were adjusted to about 4.9, after measurement of fluorescence signal, a base solution was added slowly to adjust pH to 7.7, and the corresponding fluorescence signal change was measure, the results is shown in FIG. 3. […] The instrument is fluorospectrophotometer, model: LS 55.

[2] = RHg1 1 μM, sea water, Hg^2+ 1 to 5 ppb
Description: The application of the fluorescence probe of the present invention in sea water is described below. Namely, the probe is dissolved in an organic solvent or an organic solvent/water to form a probe solution. Some amount of the probe solution is added into the sea water sample containing Hg^2+ and the mixture is reacted for 10 to 30 min, and then fluorescence is detected.
The instrument is fluorospectrophotometer, model: LS 55.

[3] = RHg1 3 μM, L-cysteine 10 μM, Hg^2+ 1 μM
Description: The fluorescence of RHg1 (3 μM) was tested first, then the fluorescence of RHg1 after addition of L-cysteine (10 μM) or Hg^2+ (1 μM) was tested, and finally the fluorescence of the mixed solution containing RHg1, L-cysteine and Hg^2+ was tested. […] The instrument is Nikon eclipase TE 2000-5.

Hela cells = conditions: 37° C., 30 min, RHg1 10 μM
Description: In order to investigate the ability of probe to track Hg^2+ in living cells, the following experiment is carried out. A neutral buffer containing the probe is added into cells, and then cells are incubated for 0.5 h in an incubator of 37° C. containing 5% CO2. The obtained cells are fully washed with the buffer or the culture medium and then imaged with fluorescent microscope to give a blank image. On the other hand, Hg(NO3)2 solution (final concentration is made to 10 μM) is added into the culture containing cells and the probe, and then cells are incubated for 0.5 h in an incubator of 37° C. containing 5% CO2. The obtained cells are washed with the culture medium and then imaged with fluorescent microscope to give an image showing intracellular distribution of Hg^2+, by which the information about the presence of Hg^2+ and regional distribution of Hg^2+ in cells is obtained.
The instrument is Nikon eclipase TE 2000-5.

[4] = probe 5 μM, ethanol/water=1/1 v/v; for fluorescence and UV-Vis absorption enhancement induced by Hg^2+: Hg^2+ 15 equivalence; for selectivity to Hg^2+: metal ions 50 equivalence (Hg^2+ 15 equivalence), without the interference from Na^+, K^+, Ca^2+, Mg^2+, Cu^2+ and so on
Description: The synthesized compound RHg1 was adopted to test the selectivity to Hg^2+. RHg1 (5 μM) was added into ethanol aqueous solution (ethanol/water=1/1, v/v) containing metal ion (50 equivalence, except that Hg^2+ is 15 equivalence), and then the fluorescence spectrum was tested with excitation wavelength of 510 nm and emission wavelength of 580 nm, the result is shown in FIG. 1.
The synthesized compound RHg2 was adopted to test the selectivity to Hg^2+. RHg2 (5 μM) was added into ethanol aqueous solution (ethanol/water=1/1, v/v) containing metal ion (50 equivalence, except that Hg^2+ is 15 equivalence), and then the fluorescence spectrum was tested, the result is shown in FIG. 10.
The synthesized compound RHg3 was adopted to test the selectivity to Hg^2+. RHg3 (5 μM) was added into ethanol aqueous solution (ethanol/water=1/1, v/v) containing metal ion (50 equivalence, except that Hg^2+ is 15 equivalence), and then the fluorescence spectrum was tested, the result is shown in FIG. 11.
The synthesized compound RHg4 was adopted to test the selectivity to Hg^2+. RHg4 (5 μM) was added into ethanol aqueous solution (ethanol/water=1/1, v/v) containing metal ion (50 equivalence, except that Hg^2+ is 15 equivalence), and then the fluorescence spectrum was tested, the result is shown in FIG. 12.
The synthesized compound RHg5 was adopted to test the selectivity to Hg^2+. RHg5 (5 μM) was added into ethanol aqueous solution (ethanol/water=1/1, v/v) containing metal ion (50 equivalence, except that Hg^2+ is 15 equivalence), and then the fluorescence spectrum was tested, the result is shown in FIG. 13.
The synthesized compound RHg6 was adopted to test the selectivity to Hg^2+. RHg6 (5 μM) was added into ethanol aqueous solution (ethanol/water=1/1, v/v) containing metal ion (50 equivalence, except that Hg^2+ is 15 equivalence), and then the fluorescence spectrum was tested, the result is shown in FIG. 14.
The synthesized compound RHg7 was adopted to test the selectivity to Hg^2+. RHg7 (5 μM) was added into ethanol aqueous solution (ethanol/water=1/1, v/v) containing metal ion (50 equivalence, except that Hg^2+ is 15 equivalence), and then the fluorescence spectrum was tested, the result is shown in FIG. 15.
The synthesized compound RHg8 was adopted to test the selectivity to Hg^2+. RHg8 (5 μM) was added into ethanol aqueous solution (ethanol/water=1/1, v/v) containing metal ion (50 equivalence, except that Hg^2+ is 15 equivalence), and then the fluorescence spectrum was tested, the result is shown in FIG. 16.
The synthesized compound RHg9 was adopted to test the selectivity to Hg^2+. RHg9 (5 μM) was added into ethanol aqueous solution (ethanol/water=1/1, v/v) containing metal ion (50 equivalence, except that Hg^2+ is 15 equivalence), and then the fluorescence spectrum was tested, the result is shown in FIG. 17.
The synthesized compound RHg10 was adopted to test the selectivity to Hg^2+. RHg10 (5 μM) was added into ethanol aqueous solution (ethanol/water=1/1, v/v) containing metal ion (50 equivalence, except that Hg^2+ is 15 equivalence), and then the fluorescence spectrum was tested, the result is shown in FIG. 18.

Row | SMILES | fluorescence and UV-Vis absorption enhancement induced by Hg^2+ [4] | selectivity to Hg^2+ [4] | other results
1 | CCN(CC)c1ccc2c(c1)Oc1cc(N(CC)CC)ccc1C21c2ccccc2C(=O)N1/N=C/C=N/c1ccccc1O [RHg1] | large fluorescence and UV-Vis absorption enhancement | good selectivity | effect of pH change on fluorescence emission [1]: nearly not effected; relationship between fluorescence intensity and Hg^2+ concentration [2]: good linear relationship; effect of L-cysteine on Hg^2+ detection [3]: little effects; fluorescence in living Hela cells without Hg^2+ (Hela cells): very weak; fluorescence in living Hela cells with Hg^2+ added (Hela cells; Hg^2+ 10 μM): very strong
2 | CCN(CC)c1ccc2c(c1)Oc1cc(N(CC)CC)ccc1C21c2ccccc2C(=O)N1/N=C/C=N/c1ccccc1C [RHg2] | large fluorescence and UV-Vis absorption enhancement | good selectivity | –
3 | CCN(CC)c1ccc2c(c1)Oc1cc(N(CC)CC)ccc1C21c2ccccc2C(=O)N1/N=C/C=N/c1ccccc1 [RHg3] | large fluorescence and UV-Vis absorption enhancement | good selectivity | –
4 | CCN(CC)c1cc2c(cc1C)C1(c3ccc(N)cc3O2)c2ccccc2C(=O)N1/N=C/C=N/c1ccccc1 (stereo not shown) [RHg7] | large fluorescence and UV-Vis absorption enhancement | good selectivity | –
5 | CCN(CC)c1cc2c(cc1C)C1(c3ccc(N)cc3O2)c2ccccc2C(=O)N1/N=C/C=N/c1ccc(C#N)cc1 (stereo not shown) [RHg8] | large fluorescence and UV-Vis absorption enhancement | good selectivity | –
6 | CCN(CC)c1cc2c(cc1C)C1(c3ccc(N)cc3O2)c2ccccc2C(=O)N1/N=C/C=N/c1ccc(NC(C)=O)cc1 (stereo not shown) [RHg9] | large fluorescence and UV-Vis absorption enhancement | good selectivity | –
7 | CCN(CC)c1cc2c(cc1C)C1(c3ccc(N)cc3O2)c2ccccc2C(=O)N1/N=C/C=N/c1ccc(Nc2ccccc2)cc1 (stereo not shown) [RHg10] | large fluorescence and UV-Vis absorption enhancement | good selectivity | –
8 | CCN(CC)c1cc2c(cc1C)C1(c3ccc(N)cc3O2)c2ccccc2C(=O)N1/N=C/C=N/c1ccc(C(C)=O)cc1 (stereo not shown) [RHg11] | large fluorescence and UV-Vis absorption enhancement | good selectivity | –
9 | CCNc1cc2c(cc1C)C1(c3cc(C)c(NCC)cc3O2)c2ccccc2C(=O)N1/N=C/C=N/c1ccc(OC)cc1 [RHg13] | large fluorescence and UV-Vis absorption enhancement | good selectivity | –
10 | CCNc1cc2c(cc1C)C1(c3cc(C)c(NCC)cc3O2)c2ccccc2C(=O)N1/N=C/C=N/c1ccc(CCl)cc1 [RHg14] | large fluorescence and UV-Vis absorption enhancement | good selectivity | –
11 | CCNc1cc2c(cc1C)C1(c3cc(C)c(NCC)cc3O2)c2ccccc2C(=O)N1/N=C/C=N/c1ccc(C(=O)O)cc1 [RHg15] | large fluorescence and UV-Vis absorption enhancement | good selectivity | –
12 | CCNc1cc2c(cc1C)C1(c3cc(C)c(NCC)cc3O2)c2ccccc2C(=O)N1/N=C/C=N/c1ccc(Nc2ccccc2)cc1 [RHg17] | large fluorescence and UV-Vis absorption enhancement | good selectivity | –
13 | CCN(CC)c1ccc2c(c1)Oc1cc(N)ccc1C21c2ccccc2C(=O)N1/N=C/C=N/c1ccc(Br)cc1 (stereo not shown) [RHg18] | large fluorescence and UV-Vis absorption enhancement | good selectivity | –
14 | CCN(CC)c1ccc2c(c1)Oc1cc(N)ccc1C21c2ccccc2C(=O)N1/N=C/C=N/c1ccc(OC)cc1 (stereo not shown) [RHg19] | large fluorescence and UV-Vis absorption enhancement | good selectivity | –
15 | CCN(CC)c1ccc2c(c1)Oc1cc(N)ccc1C21c2ccccc2C(=O)N1/N=C/C=N/c1ccc(OCCOCCO)cc1 (stereo not shown) [RHg20] | large fluorescence and UV-Vis absorption enhancement | good selectivity | –
16 | Nc1ccc2c(c1)Oc1cc(N)ccc1C21c2ccccc2C(=O)N1/N=C/C=N/c1ccc(OCCOCCO)cc1 [RHg22] | large fluorescence and UV-Vis absorption enhancement | good selectivity | –
17 | Nc1ccc2c(c1)Oc1cc(N)ccc1C21c2ccccc2C(=O)N1/N=C/C=N/c1ccc(C(=O)O)cc1 [RHg23] | large fluorescence and UV-Vis absorption enhancement | good selectivity | –
18 | Nc1ccc2c(c1)Oc1cc(N)ccc1C21c2ccccc2C(=O)N1/N=C/C=N/c1ccc(Nc2ccccc2)cc1 [RHg24] | large fluorescence and UV-Vis absorption enhancement | good selectivity | –
19 | Cc1c(/N=C/C=N/N2C(=O)c3ccccc3C23c2ccc(N)cc2Oc2cc(N)ccc23)cccc1C(F)(F)F [RHg25] | large fluorescence and UV-Vis absorption enhancement | good selectivity | –
